Measurements as given in patent US10538496B2, “Methods using HDAC11 inhibitors” (FORMA Therapeutics, Inc., priority 2016, dated 2020).

Key:
[1] = system: SET-2 cells; assay: Cell proliferation assay (CCK8); format: cell-based; conditions: FIG. 4 legend
Procedure: (§1) This example describes inhibition of in vitro cell proliferation with exemplary HDAC11 inhibitors. The effects of selective HDAC11 inhibitors on cell proliferation were measured in cell lines containing the MPN-associated mutations MPL W515L (Ba/F3 MPL W515L) and JAK2 V617F (Ba/F3 JAK2 V617F, HEL 92.1.7, SET-2). HEL 92.1.7 and SET-2 cells were purchased from the ATCC and DSMZ, respectively. Ba/F3 cells overexpressing either MPLW515L or JAK2V617F, which were cytokine independent, were generated by transforming Ba/F3 cells with retroviruses overexpressing either MPL W515L or JAK2V617F. For survival assays, cells were seeded in 96-well plates at the density of 0.1 million/ml with addition of indicated compounds and incubated at 37° C. for 48h. CCK8 solution (Dojindo, Rockville, Md.) was added and absorbance at 450 nm was measured after 3 hours of incubation. Readings were normalized to dimethylsulfoxide (DMSO)-treated wells.

[2] = system: HEL 92.1.7 cells; assay: Cell proliferation assay (CCK8); format: cell-based; conditions: 48h
Procedure: as §1

## N#CC[C@H](C1CCCC1)n1cc(-c2ncnc3[nH]ccc23)cn1 [ruxolitinib, reference compound]
[1]
  growth of SET-2 cell line: inhibited
[2]
  growth of the HEL 92.1.7 cell line: inhibited
